The source of these data is patent US6455587B1 (priority 2000, dated 2002).

One may read the Ki as a dissociation constant, usually derived from enzyme kinetics or from competition with a known ligand.

For one assay, the target named is T1, recombinant HIV-1 protease (Human immunodeficiency virus type 1 group M subtype B, UniProt P04585).
T1 construct: recombinant HIV-1 protease (final concentration 2.18 nM) purchased from Bachem Bioscience; purchased Bachem Bioscience
Description: Enzymatic fluorometric (FRET) assay for determining the inhibition constant (Ki) against HIV protease. Format: biochemical. As to conditions: Ki (nM). In a few lines: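 FRET substrate (EDANS/DABCYL) cleavage followed at 31° C., ex 340/em 485 nm. Initial velocity recorded over 4 min, then inhibitor added at several concentrations and rate read another 4 min. Ki derived from v0 and vi via Henderson equation using [S] and Km.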
For the compound `Cc1ccc(S(=O)(=O)N(CC2CC2)[C@@H](CCCCNC(=O)OCC2c3ccccc3-c3ccccc32)C(=O)O)cc1` [Compound 43, Nα-Cyclopropylmethyl-Nα-(4-methylbenzenesulfonyl)-Nε-(9-fluorenylmethoxycarbonyl)-L-lysine], the Ki amounted to 3.9 nM.
`Cc1ccc(S(=O)(=O)N(CC(C)C)C(CCCNC(=O)OCC2c3ccccc3-c3ccccc32)C(=O)O)cc1` (racemic) [Compound 6, Nα-Isobutyl-Nα-(4-methylbenzenesulfonyl)-Nδ-(9-fluorenylmethoxycarbonyl)-DL-ornithine]: the Ki was 180 nM.
In the case of `CC(C)CN(C(CCCCNC(=O)OCc1ccccc1)C(=O)O)S(=O)(=O)c1ccc(Br)cc1` (stereo not shown) [Compound 67], the Ki was more than 100 nM.

Still in this assay, the particulars now being: fluorometric FRET assay, 31° C., pH 4.7, recombinant HIV-1 protease 2.18 nM, substrate 10 μM; read-out: Ki.
For `CC(C)CN([C@@H](CCCCNC(=O)CCc1ccc(N)cc1)C(=O)O)S(=O)(=O)c1ccc(N)cc1` [Compound 194, Nα-Isobutyl-Nα-(4-aminobenzenesulfonyl)-Nε-(4-aminodihydrocinnamoyl)-L-lysine], the Ki is more than 300 nM.
On the same count and under the same terms, to `CC(C)CN([C@@H](CCCCNC(=O)CCc1cccnc1)C(=O)O)S(=O)(=O)c1ccc(N)cc1` [Compound 195, Nα-Isobutyl-Nα-(4-aminobenzenesulfonyl)-Nε-[3-(3-pyridyl)propionyl]-L-lysine] belongs more than 300 nM.
Same read-out and setting: to `Cc1ccc(S(=O)(=O)N(CC(C)C)[C@@H](CCCCNC(=O)COc2ccccc2)C(=O)O)cc1` [Compound 203, Nα-Isobutyl-Nα-(4-methylbenzenesulfonyl)-Nε-phenoxyacetyl-L-lysine] belongs 17.5 nM.

Staying with this assay, now noted: fluorometric FRET assay, recombinant HIV-1 protease, pH 4.7, 31° C.; read-out: Ki.
In the case of `Nc1ccc(S(=O)(=O)NCCC[C@H](NC(=O)OCC2c3ccccc3-c3ccccc32)C(=O)O)cc1` [Compound 69, Nδ-(4-Aminobenzenesulfonyl)-Nα-(9-fluorenylmethoxycarbonyl)-L-ornithine], the Ki turned out to be 23800 nM.
On the same count and under the same terms, under `CC(C)CN([C@@H](CCCCNC(=O)CCCc1ccccc1)C(=O)O)S(=O)(=O)c1ccc(N)cc1` [Compound 121, Nα-Isobutyl-Nα-(4-aminobenzenesulfonyl)-Nε-(4-phenylbutanoyl)-L-lysine] stands more than 300 nM; under `Cc1ccc(S(=O)(=O)N(Cc2ccccc2)[C@@H](CCCCNC(=O)OCC2c3ccccc3-c3ccccc32)C(=O)O)cc1` [Compound 40, Nα-Benzyl-Nα-(4-methylbenzenesulfonyl)-Nε-(9-fluorenylmethoxycarbonyl)-L-lysine], 19.6 nM; under `O=C(N[C@@H](CCCNS(=O)(=O)c1ccc([N+](=O)[O-])cc1)C(=O)O)OCC1c2ccccc2-c2ccccc21` [Compound 62, Nδ-(4-Nitrobenzenesulfonyl)-Nα-(9-fluorenylmethoxycarbonyl)-L-ornithine], 26200 nM.
Still for that read-out and setting: under `O=C(N[C@@H](CCCCNS(=O)(=O)c1cccc2cccnc12)C(=O)O)OCC1c2ccccc2-c2ccccc21` [Compound 28, Nε-(8-Quinolinesulfonyl)-Nα-(9-fluorenylmethoxycarbonyl)-L-lysine] stands 15000 nM.
Same read-out and setting: to “Nα-Isobutyl-Nα-(4-methylbenzenesulfonyl)-Nε-(9-fluorenylmethoxycarbonyl)-L-lysine Methyl Ester [Compound 123]” belongs more than 1250 nM; to `Cc1ccc(S(=O)(=O)N(CC(C)C)C(CCCCNC(=S)CCc2ccccc2)C(=O)O)cc1` (racemic) [Compound 153, Nα-Isobutyl-Nα-(4-methylbenzenesulfonyl)-Nε-dihydrothiocinnamoyl-DL-lysine], 151 nM; to `Cc1ccc(S(=O)(=O)N(CC(C)C)C(CCCCNC(=O)C2c3ccccc3-c3ccccc32)C(=O)O)cc1` (stereo not shown) [Compound 83], 105 nM.
In the case of `Cc1ccc(S(=O)(=O)N(CC(C)C)[C@@H](CCCCNC(=O)/C=C/c2ccccc2)C(=O)O)cc1` [Compound 90], the Ki was found to be 747 nM.
With `Nc1ccc(S(=O)(=O)NCCCC[C@H](NC(=O)OCC2c3ccccc3-c3ccccc32)C(=O)O)cc1` [Compound 52, Nε-(4-Aminobenzenesulfonyl)-Nα-(9-fluorenylmethoxycarbonyl)-L-lysine], the Ki was determined as 6800 nM.
Regarding “Nα-Isobutyl-Nα-(4-nitrobenzenesulfonyl)-Nε-(4-nitrocinnamoyl)-L-lysine [Compound 111]”, the Ki was 33 nM.
Turning to `O=C(N[C@@H](CCCCNS(=O)(=O)c1ccccc1)C(=O)O)OCC1c2ccccc2-c2ccccc21` [Compound 49, Nε-Benzenesulfonyl-Nα-(9-fluorenylmethoxycarbonyl)-L-lysine], the Ki was found to be 8900 nM.
Still for that read-out and setting: under `Cc1ccc(S(=O)(=O)N(CC(C)C)[C@@H](CCCCNC(=O)CCc2ccccc2)C(=O)O)cc1` [Compound 91] stands 8 nM.
Still for that read-out and setting: under `O=C(N[C@H](CO)CCCCNS(=O)(=O)c1ccc(Br)cc1)OCC1c2ccccc2-c2ccccc21` [Compound 22, (2S)-(9-Fluorenylmethoxycarbonylamino)-6-(4-bromobenzenesulfonylamino)-1-hexanol] stands more than 6000 nM; under `COc1ccc(CCC(=O)NCCCC[C@@H](C(=O)O)N(CC(C)C)S(=O)(=O)c2ccc(N)cc2)cc1` [Compound 120, Nα-Isobutyl-Nα-(4-aminobenzenesulfonyl)-Nε-(4-methoxydihydrocinnamoyl)-L-lysine], 12.4 nM.
Same read-out and setting: under “Nα-Isobutyl-Nα-(4-iodobenzenesulfonyl)-Nε-benzyloxycarbonyl-DL-lysine [Compound 48]” stands more than 100 nM; under `O=C(N[C@@H](CCCCNS(=O)(=O)c1ccc(Cl)cc1)C(=O)O)OCC1c2ccccc2-c2ccccc21` [Compound 53, Nε-(4-Chlorobenzenesulfonyl)-Nα-(9-fluorenylmethoxycarbonyl)-L-lysine], 4800 nM; under `Cc1ccc(S(=O)(=O)NCCC[C@H](NC(=O)OCC2c3ccccc3-c3ccccc32)C(=O)O)cc1` [Compound 149, Nδ-(4-Methylbenzenesulfonyl)-Nα-(9-fluorenylmethoxycarbonyl)-L-ornithine], 10100 nM.
With `O=C(N[C@@H](CCCCNS(=O)(=O)c1ccc(I)cc1)C(=O)O)OCC1c2ccccc2-c2ccccc21` [Compound 64, Nε-(4-Iodobenzenesulfonyl)-Nα-(9-fluorenylmethoxycarbonyl)-L-lysine], the Ki worked out at 19200 nM.
Still for that read-out and setting: to `CC(C)CN([C@@H](CCCCNC(=O)CCc1ccccc1)C(=O)O)S(=O)(=O)c1ccc([N+](=O)[O-])cc1` [Compound 94, Nα-Isobutyl-Nα-(4-nitrobenzenesulfonyl)-Nε-dihydrocinnamoyl-L-lysine] belongs 33.9 nM; to `COC(=O)[C@H](CCCCNC(=O)OCC1c2ccccc2-c2ccccc21)N(CC(C)C)S(=O)(=O)c1ccc(C)cc1` [Compound 123, Nα-Isobutyl-Nα-(4-methylbenzenesulfonyl)-Nε-(9-fluorenylmethoxycarbonyl)-L-lysine Methyl Ester], more than 300 nM; to `CC(C)CN([C@@H](CCCCNC(=O)CCc1ccccc1N)C(=O)O)S(=O)(=O)c1ccc(N)cc1` [Compound 122, Nα-Isobutyl-Nα-(4-aminobenzenesulfonyl)-Nε-(2-aminodihydrocinnamoyl)-L-lysine], more than 300 nM.
On the same count and under the same terms, under `Cc1ccc(S(=O)(=O)N(CC(C)C)[C@@H](CCCCNC(=O)C2c3ccccc3Oc3ccccc32)C(=O)O)cc1` [Compound 85] stands 14.5 nM.
Take `Cc1cc(C)c(S(=O)(=O)N(CC(C)C)[C@@H](CCCCNC(=O)OCC2c3ccccc3-c3ccccc32)C(=O)O)c(C)c1` [Compound 42, Nα-Isobutyl-Nα-(2,4,6-trimethylbenzenesulfonyl)-Nε-(9-fluorenylmethoxycarbonyl)-L-lysine]: the inhibition constant Ki is more than 100 nM.
In the case of “Nα-(9-fluorenylmethoxycarbonyl)-L-lysyl-Nα-(9-fluorenylmethoxycarbonyl)-Nε-(2,4,6-trimethylbenzenesulfonyl)-L-lysine [Compound 26]”, the Ki was 63000 nM.
On the same count and under the same terms, to `Cc1ccc(S(=O)(=O)N(CC(C)C)[C@@H](CCCCNC(=O)OCc2ccccc2)C(=O)OCc2ccccc2)cc1` [Compound 75, Nα-isobutyl-Nα-(4-methylbenzenesulfonyl)-Nε-benzyloxycarbonyl-L-lysine Benzyl Ester] belongs more than 1250 nM.
With `CC(C)CN(C(CCCCNC(=O)OCc1ccccc1)C(=O)O)S(=O)(=O)c1ccc(Cl)cc1` (stereo not shown) [Compound 4], the Ki was more than 100 nM.
The same measure, in the same setting: under `Cc1ccc(S(=O)(=O)N(CC(C)C)C(CCCCNC(=O)c2cc3ccccc3[nH]2)C(=O)O)cc1` (stereo not shown) [Compound 88] stands more than 625 nM.
On the same count and under the same terms, to `O=C(N[C@@H](CCCCNS(=O)(=O)c1ccc(Br)cc1)C(=O)O)c1ccccc1` [Compound 65, Nα-Benzoyl-Nε-(4-bromobenzenesulfonyl)-L-lysine] belongs more than 50000 nM.
In the case of `COC(=O)[C@H](CCCCNS(=O)(=O)c1ccc(Br)cc1)NC(=O)OCC1c2ccccc2-c2ccccc21` [Compound 15, Nα-(9-Fluorenylmethoxycarbonyl)-Nε-(4-bromobenzenesulfonyl)-L-lysine Methyl Ester], the Ki amounted to 47000 nM.
As for `CC(C)CN([C@@H](CCCCNC(=O)OCC1c2ccccc2-c2ccccc21)C(=O)O)S(=O)(=O)c1cccc2ccccc12` [Compound 8, Nα-Isobutyl-Nα-(1-naphthalenesulfonyl)-Nε-(9-fluorenylmethoxycarbonyl)-L-lysine], the inhibitory constant (Ki) was 54.9 nM.
On the same count and under the same terms, to `Cc1ccc(S(=O)(=O)N(CC(C)C)[C@@H](CCCCNC(=O)C(c2ccccc2)c2ccccc2)C(=O)O)cc1` [Compound 86] belongs 171 nM; to `COc1ccccc1/C=C\C(=O)NCCCC[C@@H](C(=O)O)N(CC(C)C)S(=O)(=O)c1ccc([N+](=O)[O-])cc1` [Compound 186, Nα-Isobutyl-Nα-(4-nitrobenzenesulfonyl)-Nε-(cis-2-methoxycinnamoyl)-L-lysine], 39.8 nM; to `Cc1ccc(S(=O)(=O)N(CC(C)C)[C@@H](CCCCNC(=O)CCc2c[nH]c3ccccc23)C(=O)O)cc1` [Compound 89], 6.9 nM.
